Values after ≈ are worked out from the molar mass of the structure shown. “Also recorded” adds a separate entry of the source. Where two headings read alike, the source gives them in different places.
Columns and labels:
[1] = system: isolated heart of the rabbit; assay: Cardiac action on the isolated heart of a rabbit (Langendorf preparation); conditions: for EC20: Oryctolagus cuniculus
Experimental: (§1) This was examined according to known methods in the isolated auricle (Trevan preparation) and in the isolated heart of a rabbit (Langendorf preparation).
In the Langendorf preparation, the action of the compounds was determined from three parameters; the amplitude of contractions, coronary delivery, and rhythm. […] The results are indicated in Table 1; an arrow ↓ indicates a diminution, and an arrow ↑ an augmentation.

[2] = Toxicity, intravenous in the mouse; conditions: in vivo, i.v.
Experimental: The toxicities of the various compound were determined intravenously in the mouse.

[3] = system: anaethestized dog; assay: Action on femoral delivery, aortal pressure and cardiac rhythm in the anaesthetized dog; assay type: in vivo
Experimental: This was investigated in an anaethestized dog, the compounds under test being administered by intraveneous perfusion (over 5 minutes). The various compounds under test were compared by administering all of them at a dose per kilogram corresponding to 1/10 of the mouse LD50 (I.V.).
Simultaneously were measured: variations of femoral delivery, aortal pressure, and cardiac rhythm. Table II indicates the maximum variations of these different parameters observed over the 30 minutes which followed administration of various compounds. These variations are expressed in percent based on the initial values.

[4] = system: platelet aggregation; assay: Platelet aggregation in human blood; assay type: cell-based
[5] = system: rat; assay: Protection against cerebral isochaemial hypoxy in the rat (clamping of carotid and basilar artery, E.E.G.); assay type: in vivo; conditions: 5 mg/kg i.v.
Experimental: The protective effect of the compound of Example 3 with regard to cerebal isochaemal hypoxy is shown for at least 3 hours after injection.

[6] = system: dog; assay: Cardiac isochaemal hypoxy in the dog (Sodi-Pallares preparation); assay type: in vivo; conditions: i.v. 10 or 25 mg/kg
Experimental: After ligature of the anterior intraventricular coronary artery (Sodi-Pallares preparation), intravenous administration of 10 or 25 mg/kg of the compound of Example 3, increased the strength of cardiac contractions and the ventricular dp/dt return, which reflects a […] in the contractile state of the myocardial fibres.

[7] = system: cardiovascular system; assay: Overall action on the cardiovascular system; assay type: in vivo
Excerpt: Compounds in accordance with the invention have shown a marked action on the cardiovascular system, particularly as coronary and cerebal peripheral vasodilators. Some of the compounds have also shown activity as hypotensives or hypertensives. […] In these tests, aqueous solutions of the salts described in the cited Examples were used.

[8] = system: isolated auricle; assay: Cardiac action on the isolated auricle (Trevan preparation): amplitude of contractions; conditions: arrows for diminution/increase are drawings, 0 = inactive, read-out: Action on the isolated auricle: minimum concentration producing a variation of 20% in amplitude of contractions
Experimental: as §1
Cardiac action of the compounds in question was evaluated according to the amplitude of contractions of the isolated auricle.

[9] = Hygroscopicity of the hydrochloride; assay type: physicochemical; conditions: hydrochloride salt
[10] = direction arrow is a drawing, read-out: Amplitude of contractions: concentration producing a variation of 20%
[11] = direction arrow is a drawing, read-out: Coronary delivery: concentration producing a variation of 20%
[12] = i.v. perfusion over 5 min, dose 1/10 of mouse LD50, percent based on initial values
[13] = direction arrow is a drawing, read-out: Rhythm: concentration producing a variation of 20%

## O=C1C=C2CCCCC2N1c1ccc(OCCN2CCOCC2)cc1 (centres unmarked) [Example 3, 1-[4-(2-morpholinoethoxy)-phenyl]-2-oxo-2,4,5,6,7,7a-hexahydro-indole]
[1]
  Coronary delivery (in words): did not modify coronary rhythm or augment coronary delivery
  Coronary rhythm (in words): did not modify coronary rhythm
[1]; augmentation, read-out: Concentration providing an augmentation of 20% in the amplitude of contractions
  EC20: 10 µg/mL (≈ 29.2 µM)
[1]; [10]
  EC20: 10 µg/mL (≈ 29.2 µM)
[1]; [11]
  EC20: 20 µg/mL (≈ 58.4 µM)
[2]
  LD50: 225 mg/kg
[3]; anaesthetized dog, i.v.
  Aortal pressure (in words): without modifying aortal pressure; also recorded: without changes in aortal pressure
  Cardiac frequency (in words): without modifying aortal pressure or cardiac frequency
[3]; anaesthetized dog, i.v., 1/10 of mouse LD50
  Vasodilator action (in words): clearly vasodilators
[3]; anaesthetized dog, i.v., listed as Example 4
  Aortal pressure (in words): without changes in aortal pressure
[3]; [12]
  Aortal pressure, maximum variation in 30 minutes: 0%
[4]; 1 × 10^-5 (unit not given), A.D.P. 5 mM/l
  Inhibition of platelet aggregation induced by A.D.P.: inhibited platelet aggregation
[4]; 1 × 10^-5 (unit not given), collagen 200 mg/cm^3
  Inhibition of platelet aggregation induced by collagen: inhibited platelet aggregation
[4]; 2 × 10^-4 M, adrenalin 2.5 mcM/l
  Inhibition of platelet aggregation induced by adrenalin: inhibited platelet aggregation
[5]
  Protection with regard to cerebral isochaemial hypoxy: marked protecting properties
[5]; after beginning of clamping
  Delay in the appearance of electrical silence in the E.E.G.: significantly increased
[5]; after injection
  Duration of protective effect with regard to cerebral hypoxy: at least 3 hours
[5]; after removal of the clamps
  Delay in normalization of the E.E.G. trace: significantly reduced
[5]; during clamping and after removal of clamps
  Period of electrical silence of the E.E.G.: significantly reduced
[6]
  Protection with regard to cardiac isochaemal hypoxy: showed protective properties
[6]; after coronary artery ligature
  Strength of cardiac contractions: increased
  Ventricular dp/dt return: increased
[7]; aqueous solutions of the salts
  Action on the cardiovascular system (in words): vasodilators, this action being shown on coronary delivery, femoral delivery and vertebral delivery
[7]; in vivo
  Cardiac frequency on increase in amplitude of cardiac contractions (in words): modified and transitory increase in cardiac frequency

## CN(C)CCOc1ccc(N2C(=O)C=C3CCCCC32)cc1Cl (centres unmarked) [Example 15, 1-[3-chloro-4-(2-dimethylaminoethoxy)-phenyl]-2-oxo-2,4,5,6,7,7a-hexahydro-indole]
[8]
  EC20: 5 µg/mL (≈ 14.9 µM)
[1]; [10]
  EC20: 1 µg/mL (≈ 2.99 µM)
[1]; [13]
  EC20: 1 µg/mL (≈ 2.99 µM)
[2]
  LD50: 15 mg/kg
[3]; [12]
  Aortal pressure, maximum variation in 30 minutes: 0%
  Cardiac Rhythm, maximum variation in 30 minutes: 0%
[9]
  Hygroscopicity: hygroscopic and absorbed 1/2 mol of water from the air

## CCN(CC)CCOc1ccc(N2C(=O)C(c3ccccc3)=C3CCCCC32)cc1 (centres unmarked) [Example 20, 1-[4-(2-diethylaminoethoxy)-phenyl]-2-oxo-3-phenyl-2,4,5,6,7,7a-hexahydro-indole]
[8]
  EC20: 2 µg/mL (≈ 4.94 µM)
[1]
  Coronary delivery (in words): augmented
[1]; [10]
  EC20: 1 µg/mL (≈ 2.47 µM)
[1]; [11]
  EC20: 5 µg/mL (≈ 12.4 µM)
[1]; [13]
  EC20: 5 µg/mL (≈ 12.4 µM)
[2]
  LD50: 38 mg/kg
[3]; [12]
  Aortal pressure, maximum variation in 30 minutes: 0%
  Femoral Delivery, maximum variation in 30 minutes: 0%

## O=C1C(c2ccccc2)=C2CCCCC2N1c1ccc(OCCN2CCOCC2)cc1 (centres unmarked) [Example 21, 1-[4-(2-morpholinoethoxy)-phenyl]-2-oxo-3-phenyl-2,4,5,6,7,7a-hexahydro-indole]
[8]
  EC20: 20 µg/mL (≈ 47.8 µM)
[1]
  Coronary delivery (in words): augmented
[1]; [10]
  EC20: 1 µg/mL (≈ 2.39 µM)
[1]; [11]
  EC20: 2 µg/mL (≈ 4.78 µM)
[1]; [13]
  EC20: 10 µg/mL (≈ 23.9 µM)
[2]
  LD50: 55 mg/kg
[3]; [12]
  Aortal pressure, maximum variation in 30 minutes: 0%
  Cardiac Rhythm, maximum variation in 30 minutes: 0%
